The values below are quoted from earlier work in patent US20230190668A1, “SLOW-RELEASE MEDICAL PLASTER” (FIDIA FARMACEUTICI S.P.A., priority 2020, published 2023).

Structures can show the parent of a compound that is named as a salt. Where two headings read alike, the source gives them in different places.

The conditions of this data set: same matrix, active ingredient amount and excipients, 24 hours, without BHA.

For the compound `O=C(O)Cc1ccccc1Nc1c(Cl)cccc1Cl` [diclofenac DEA salt, diclofenac diethylammonium salt], the “release from medical plaster with PSA matrix of Eudragit NE40 and citric acid ester” value was “released in a constant, continuous, prolonged and therapeutically effective way for 24 hours”.

As to `O=C(O)Cc1ccccc1Nc1c(Cl)cccc1Cl` [diclofenac sodium salt], the “release from medical plaster with PSA matrix of Eudragit NE40 and citric acid ester” value (sodium salt) is given as “released in a minimal way”.
